Test results as given in publication PMC11347161, “Sequence diversity of apidaecin-like peptides arresting the terminating ribosome” (Nucleic Acids Research, 2024).
Values after ≈ are worked out from the molar mass of the structure shown. Residues, ends and D or L forms follow the SMILES beside them. No end group written: not given here. *: point of attachment. Orn(α-tetramethylguanidino) = CN(C)C(=N[C@@H](CCCN)C(=O)*)N(C)C

System: E. coli, BL21 cells
Assay type: cell-based
Conditions: for MIC, TSB / MIC, LB / MIC, RPMI/Serum: E. coli BL21, broth microdilution, conducted in triplicate; for MIC, TSB: 33% TSB medium; for MIC, LB: LB medium; for MIC, RPMI/Serum: RPMI/Serum medium (RPMI-1640:MHB:FBS = 100:5:20); for MIC values relative to wt Api: E. coli BL21, peptides from depletion selection
Procedure: The E. coli strain CA244 (lacZ125(Am), e14-, trpA49(Am), relA1, spoT1) was obtained from Escherichia coli Genetic Stock Center. The E. coli BL21(DE3) electrocompetent cells were from Sigma. The following media and components were implemented for bacteria growth: lysogeny broth (LB), minimal M9 medium, Tryptic Soy Broth (TSB), Roswell Park Memorial Institute medium 1640 (RPMI-1640), Mueller Hinton Broth (MHB), Fetal Bovine Serum (FBS). For various experiments E. coli cells were grown either in LB, in 33% TSB ([21]), in M9 medium supplemented with 1% Glycerol, 1 mM MgSO4, 0.1 mM CaCl2 and 10 μg/ml thiamine, or in RPMI/Serum (RPMI-1640:MHB:FBS = 100:5:20) ([23]).
The minimal inhibitory concentration (MIC) test was performed using the broth microdilution method, adapted from the previously described procedure ([28]). The MIC tests were conducted in triplicate either in LB, 33% TSB or RPMI/Serum media.
In order to quantitatively assess the antimicrobial activity of the synthesized peptides identified by both, the negative and positive selection strategies, we determined their minimal inhibitory concentrations (MICs) for the E. coli BL21 cells in three different media: LB, as a standard laboratory medium, 33% TSB, as a medium in which PrAMPs show increased antibacterial properties ([21]), and in the more therapeutically relevant RPMI/serum media ([23]) (Table 1). […] It appears, therefore, that the positive selection strategy is more prone to identifying biologically active peptides in comparison with the negative selection approaches. Furthermore, it became apparent that some multiple substitutions can even improve the antibacterial properties of the Api-like peptides.

Compound	MIC, TSB	MIC, LB	MIC, RPMI/Serum	MIC values relative to wt Api
GNNRPVYIPKPRPPYPRK [Peptide K10Y15K18]	2 µM	8 µM	2 µM	–
CC(C)C[C@H](NC(=O)[C@H](CCCNC(=N)N)NC(=O)[C@H](CC(C)C)NC(=O)[C@H](Cc1c[nH]cn1)NC(=O)[C@@H]1CCCN1C(=O)CNC(=O)[C@H](CC(C)C)NC(=O)[C@@H]1CCCN1C(=O)[C@H](CCC(N)=O)NC(=O)[C@@H]1CCCN1C(=O)[C@H](CC(C)C)NC(=O)[C@H](Cc1ccc(O)cc1)NC(=O)[C@@H](NC(=O)[C@@H]1CCCN1C(=O)[C@H](CCCNC(=N)N)NC(=O)[C@H](CC(N)=O)NC(=O)[C@H](CC(N)=O)NC(=O)[C@H](CCCN)N=C(N(C)C)N(C)C)C(C)C)C(=O)O [Peptide L8L12G13L16] ({Orn(α-tetramethylguanidino)}-NNRPVYLPQPLGPHLRL-OH; C-terminus assumed)	>64 µM	>64 µM	>64 µM	–
CC(C)C[C@H](NC(=O)[C@@H]1CCCN1C(=O)[C@H](CCC(N)=O)NC(=O)[C@@H]1CCCN1C(=O)[C@H](CC(C)C)NC(=O)[C@H](Cc1ccc(O)cc1)NC(=O)[C@@H](NC(=O)[C@@H]1CCCN1C(=O)[C@H](CCCNC(=N)N)NC(=O)[C@H](CC(N)=O)NC(=O)[C@H](CC(N)=O)NC(=O)[C@H](CCCN)N=C(N(C)C)N(C)C)C(C)C)C(=O)NCC(=O)N1CCC[C@H]1C(=O)NCC(=O)N1CCC[C@H]1C(=O)N[C@@H](CCCNC(=N)N)C(=O)N[C@@H](C)C(=O)O [L8L12G13G15A18] ({Orn(α-tetramethylguanidino)}-NNRPVYLPQPLGPGPRA-OH; C-terminus assumed)	>64 µM	>64 µM	>64 µM	–
GYNRPAYIPRPRPPHPRR [Peptide Y2A6R10R18]	1 µM	4 µM	0.5 µM	–
SVMRPVYKPQPRPPHPRL [Peptide S1V2M3K8]	0.5 µM	16 µM	4 µM	–
GNRRPMYIPRPRPPHPRE [Peptide R3M6R10E18]	8 µM	>64 µM	16 µM	–
CC[C@H](C)[C@H](NC(=O)[C@H](Cc1ccc(O)cc1)NC(=O)[C@H](CCSC)NC(=O)[C@@H]1CCCN1C(=O)[C@H](CCCNC(=N)N)NC(=O)[C@H](CC(N)=O)NC(=O)[C@H](CC(N)=O)NC(=O)[C@H](CCCN)N=C(N(C)C)N(C)C)C(=O)N[C@@H](C)C(=O)N[C@@H](CCC(N)=O)C(=O)N1CCC[C@H]1C(=O)N[C@@H](CCCNC(=N)N)C(=O)N1CCC[C@H]1C(=O)N[C@@H](Cc1ccc(O)cc1)C(=O)N[C@@H](Cc1c[nH]cn1)C(=O)N1CCC[C@H]1C(=O)N[C@@H](CCCNC(=N)N)C(=O)N[C@@H](CC(C)C)C(=O)O [Peptide M6A9Y14] ({Orn(α-tetramethylguanidino)}-NNRPMYIAQPRPYHPRL-OH; C-terminus assumed)	16 µM (≈ 37.4 µg/mL)	>64 µM	16 µM (≈ 37.4 µg/mL)	–
GRNRPVYIPKPRPPHPRL [Peptide R2K10]	0.25 µM	2 µM	0.5 µM	–
GNNRPGYQPKPRPPHPRL [Peptide G6Q8K10]	0.5 µM	32 µM	16 µM	–
GNNRPGYDRQPRPPHPRL [Peptide G6D8R9]	8 µM	16 µM	4 µM	–
CSCC[C@H](NC(=O)[C@H](CCCNC(=N)N)NC(=O)[C@@H]1CCCN1C(=O)[C@H](Cc1ccc(O)cc1)NC(=O)[C@@H]1CCCN1C(=O)[C@H](Cc1ccccc1)NC(=O)[C@H](Cc1ccc(O)cc1)NC(=O)[C@@H](NC(=O)[C@@H]1CCCN1C(=O)[C@H](CCCNC(=N)N)NC(=O)[C@H](C)NC(=O)[C@H](CC(N)=O)NC(=O)[C@H](CCCN)N=C(N(C)C)N(C)C)C(C)C)C(=O)N1CCC[C@H]1C(=O)N[C@@H](Cc1c[nH]cn1)C(=O)N1CCC[C@H]1C(=O)N[C@@H](CCCNC(=N)N)C(=O)N[C@@H](CC(C)C)C(=O)O [Peptide A3F8Y10M13] ({Orn(α-tetramethylguanidino)}-NARPVYFPYPRMPHPRL-OH; C-terminus assumed)	16 µM (≈ 37.2 µg/mL)	>64 µM	8 µM (≈ 18.6 µg/mL)	–
CC(C)C[C@H](NC(=O)[C@H](CCCNC(=N)N)NC(=O)[C@@H]1CCCN1C(=O)[C@H](Cc1c[nH]cn1)NC(=O)[C@@H]1CCCN1C(=O)[C@H](CO)NC(=O)[C@H](CCCNC(=N)N)NC(=O)[C@@H]1CCCN1C(=O)[C@@H](NC(=O)[C@H](CC(N)=O)NC(=O)[C@H](Cc1ccc(O)cc1)NC(=O)[C@H](Cc1ccc(O)cc1)NC(=O)[C@@H](NC(=O)[C@@H]1CCCN1C(=O)[C@H](CCCNC(=N)N)NC(=O)[C@H](CCCCN)NC(=O)[C@H](CC(N)=O)NC(=O)[C@H](CCCN)N=C(N(C)C)N(C)C)C(C)C)[C@@H](C)O)C(=O)O [Peptide K3Y8N9T10S13] ({Orn(α-tetramethylguanidino)}-NKRPVYYNTPRSPHPRL-OH; C-terminus assumed)	>64 µM	>64 µM	>64 µM	–
GKNRPVYIYQPKPPIPRL [Peptide K2Y9K12I15]	>64 µM	>64 µM	>64 µM	–
CC[C@H](C)[C@H](NC(=O)[C@H](Cc1ccc(O)cc1)NC(=O)[C@@H](NC(=O)[C@H](CCCNC(=N)N)NC(=O)[C@H](CCCNC(=N)N)NC(=O)[C@H](CC(N)=O)NC(=O)[C@H](CC(N)=O)NC(=O)[C@H](CCCN)N=C(N(C)C)N(C)C)C(C)C)C(=O)N1CCC[C@H]1C(=O)N[C@@H](CC(N)=O)C(=O)N1CCC[C@H]1C(=O)N[C@@H](CCCNC(=N)N)C(=O)N1CCC[C@H]1C(=O)N1CCC[C@H]1C(=O)N[C@@H](Cc1c[nH]cn1)C(=O)N1CCC[C@H]1C(=O)N[C@@H](CCCNC(=N)N)C(=O)N[C@@H](CC(C)C)C(=O)O [Peptide R5N10] ({Orn(α-tetramethylguanidino)}-NNRRVYIPNPRPPHPRL-OH; C-terminus assumed)	8 µM (≈ 18.5 µg/mL)	32 µM (≈ 73.9 µg/mL)	1 µM (≈ 2.31 µg/mL)	comparable to those of wt Api
GNNRPVYAYQPRPPHPRT [Peptide A8Y9T18]	4 µM	32 µM	8 µM	–
CC(C)C[C@H](NC(=O)[C@H](CCCNC(=N)N)NC(=O)[C@@H]1CCCN1C(=O)[C@H](Cc1c[nH]cn1)NC(=O)[C@H](Cc1ccc(O)cc1)NC(=O)[C@@H]1CCCN1C(=O)[C@H](CCCNC(=N)N)NC(=O)[C@@H]1CCCN1C(=O)[C@@H](NC(=O)[C@H](CS)NC(=O)[C@H](Cc1c[nH]c2ccccc12)NC(=O)[C@H](CCC(N)=O)NC(=O)[C@@H](NC(=O)[C@H](CCCCN)NC(=O)[C@H](CCCNC(=N)N)NC(=O)[C@H](CC(N)=O)NC(=O)[C@H](CC(N)=O)NC(=O)[C@H](CCCN)N=C(N(C)C)N(C)C)C(C)C)C(C)C)C(=O)O [K5Q7W8C9V10Y14] ({Orn(α-tetramethylguanidino)}-NNRKVQWCVPRPYHPRL-OH; C-terminus assumed)	>64 µM	>64 µM	>64 µM	–
CC[C@H](C)[C@H](NC(=O)[C@H](Cc1ccc(O)cc1)NC(=O)[C@H](CCCNC(=N)N)NC(=O)[C@@H]1CCCN1C(=O)[C@H](CCCNC(=N)N)NC(=O)[C@H](CC(N)=O)NC(=O)[C@H](CC(N)=O)NC(=O)[C@H](CCCN)N=C(N(C)C)N(C)C)C(=O)N1CCC[C@H]1C(=O)N[C@@H](C)C(=O)N1CCC[C@H]1C(=O)N[C@@H](CCCNC(=N)N)C(=O)N1CCC[C@H]1C(=O)N1CCC[C@H]1C(=O)N[C@@H](Cc1c[nH]cn1)C(=O)N1CCC[C@H]1C(=O)N[C@@H](CCCNC(=N)N)C(=O)N[C@@H](CC(C)C)C(=O)O [Peptide R6A10] ({Orn(α-tetramethylguanidino)}-NNRPRYIPAPRPPHPRL-OH; C-terminus assumed)	0.5 µM (≈ 1.13 µg/mL)	4 µM (≈ 9.05 µg/mL)	0.0625 µM (≈ 0.141 µg/mL)	comparable to those of wt Api
GNNRPGYIPPPRPPHPRL [Peptide G6P10]	0.5 µM	8 µM	4 µM	–
GNNRPVYIPQPRPPHPRL [Api Ib, Apidaecin 1b, reference compound]	0.5 µM	16 µM	4 µM	–
TNARPVNAPQPRPPHPRL [Peptide T1A3N7A8]	8 µM	64 µM	16 µM	–
GNNRPVYIPKPPTPHPRL [Peptide K10P12T13]	1 µM	64 µM	8 µM	–
GNNRPVCAPQPAWPTGRL [C7A8A12W13T15G16]	>64 µM	>64 µM	>64 µM	–
